Measurements from ChEMBL document CHEMBL1141913, “Novel 2-aminothiazonaphthalimides as visible light activatable photonucleases: effects of intercalation, heterocyclic-fused area and side chains” (Bioorg Med Chem Lett, 2005).

System: Calf thymus DNA
Test: Scatchard binding constant between calf thymus DNA (CT-DNA) measured in 30 mM Tris HCl buffer at pH 7.5
Format: nucleic-acid assay
Conditions: Bos taurus

| Binding constant [M⁻¹] | SMILES |
| --- | --- |
| 25600 | CN(C)CCN1C(=O)c2cccc3cc4nc(N)sc4c(c23)C1=O |
| 19800 | CN(C)CCN1C(=O)c2cccc3c2c(cc2nc(N)sc23)C1=O |
| 47300 | CN(C)CCCN1C(=O)c2cccc3cc4nc(N)sc4c(c23)C1=O |
| 28700 | CN(C)CCCN1C(=O)c2cccc3c2c(cc2nc(N)sc23)C1=O |
